Data as given in US8882853B2, “Environmentally-friendly solvent for washing and dry-cleaning, and laundry composition including the same” (LG Household & Health Care Ltd., priority 2011, dated 2014).
Where two headings read alike, the source gives them in different places.

What was measured:
[1] = Drying rate of solvent impregnated in standard cotton samples at room temperature; format: physicochemical; details: dried for 8 hours, room temperature (25° C.), relative humidity of 30%
Description: Each solvent used in Comparative Examples 1 to 7 and Examples 1 to 4 was evaluated for its drying rate at room temperature which is considered an important factor in dry-cleaning. The initial weight (A) of standard cotton samples was each measured. After impregnating each solvent or composition in a certain amount into the cotton samples, the weight (B) of the cotton samples was measured. A difference between weight (B) and weight (A) was calculated to determine the weight of each of the impregnated solvents. Then, the cotton samples in which each solvent was impregnated were dried for 8 hours under conditions of room temperature (25° C.) and a relative humidity of 30%. After drying, the weight of each cotton sample was measured and converted into a percentage relative to the initial impregnation weight to obtain a drying rate for each solvent.

Solubility in water = format: physicochemical
Description: There has been a limitation in the effectiveness of conventional solvents for dry-cleaning in removing water-based contaminants due to the hydrophobic property thereof. Accordingly, in order to relatively evaluate a cleaning effect on the removal of water-based contaminants, the water-containing capacity of solvents according to the present invention was compared with that of the conventional dry-cleaning solvents.

Structure (SMILES) | Drying rate (%) [1] [%] | Solubility (20° C.) (Solubility in water) [g/ g/100 mL] | Solubility (20° C.) (Solubility in water; result in words)
O [Com. Ex. 1, Water] | 100 |  | 
ClC(Cl)=C(Cl)Cl [Com. Ex. 2, Perchloroethylene] | 100 | 0.015 | 
C[Si]1(C)O[Si](C)(C)O[Si](C)(C)O[Si](C)(C)O[Si](C)(C)O1 [Com. Ex. 4, Decamethyl-cyclopentasiloxane] | 100 |  | Insol-
COCC(O)CO (centres unmarked) [Com. Ex. 5, 3-Methoxy 1,2-propanol] | 10.53 |  | 
COCC(CO)OC (centres unmarked) [Com. Ex. 6, 2,3-Dimethoxy-1-propanol] | 95.29 |  | 
CC1(C)OCC(CO)O1 (centres unmarked) [Example 1, Acetone Glycerol] | 100 |  | soluble
CCC1(C)OCC(CO)O1 (centres unmarked) [Example 2, Glycerol-Methyl Ethyl Ketone Ketal] | 100 |  | soluble
CC(C)CC1(C)OCC(CO)O1 (centres unmarked) [Example 3, Glycerol-Methyl Isobuthyl Ketone Ketal] | 85.25 |  | 
CCCC1OCC(CO)O1 (centres unmarked) [Example 4, Glycerol-Butylaldehyde Acetal] | 90.3 |  | soluble
